Data taken from patent US6372501B1, “Glucose responsive β-cell line” (Aberdeen University, priority 1997, dated 2002).
“Also recorded” adds a separate entry of the source. Where two headings read alike, the source gives them in different places.

What was measured:
[1] = test system: recombinant KATP channels; test: Patch-clamp recording of recombinant KATP channels in NISK 9 β-cells; format: cell-based, human; settings: for effect on K+ channel in inside-out patch: NISK 9 β-cell, same inside-out patch, ATP 500 μM, diazoxide 500 μM in the presence of ATP, tolbutamide 250 μM, efaroxan 200 μM; for effect on recombinant KATP channels: NISK 9 β-cells, cell attached (n=4) and inside-out patch (n=5); for effect of nucleotides on recombinant KATP channels: ADP in the presence of inhibitory concentration of ATP
Description: In panel A, all data come from the same inside-out patch recording. […] When recorded using symmetrical 140 mM KCl-rich solutions on either side of the cell membrane the channel has an inwardly-retifying relationship, with an estimated inward current conductance of approximately 70 pS. See also claim 11 hereinafter.
Panels A and B were obtained under the same conditions as illustrated in FIG. 9. […] In panel B, tolbutamide is shown to inhibit diazoxide-activated KATP channels in an inside-out patch; note that when this configuration is used, ATP must be added to the inside face of the cell membrane to facilitate diazoxide-induced K^+ channel activation. Mean data from several experiments are also illustrated in panels A and B. See also claim 11 hereinafter.
All data comes from the same membrane recording: an inside-out patch record obtained from a NISK 9 β-cell. […] Closure of KATP channels was also associated with a rise in the cytosolic concentration ([Ca^2+]1), not shown. Thus, the Δ[Ca^2+]1 for tolbutamide was found, on average to be 158+/−24 nM (n=22), and for efaroxan 195+/−40 nM (n=12). See also claim 11 hereinafter.
(§1) All data were obtained from either primary cultured human islet cells (control) or from NES 2Y β-cells(transfected and untransfected) by patch-clamp techniques.
(§2) Standard KCl- and NaCl-rich solutions were used in all electophysiology recordings to provide quasi-physiological cationic gradients. Procedures used for data collection and analysis were described previously.

[2] = test system: NISK 9 β-cells; test: Ca2+ microfluorimetry (fura-2) in NISK 9 β-cells; format: cell-based, human; settings: for Δ[Ca2+]i, rise in the cytosolic concentration: average, tolbutamide n=22, efaroxan n=12; for effect on cytosolic Ca2+ ([Ca2+]i): glucose n=8, n=22, KCl 40 mM n=22
Description: (§3) Ca^2+ microfluorimetry experiments were performed with fura-2-loaded cells and intact islets as described previously.

[3] = target: T1, KATP channels (Homo sapiens, UniProt Q09428+Q14654); test: Patch-clamp recording of KATP channels in control human β-cells; format: cell-based; settings: cell attached configuration, diazoxide 500 μM, tolbutamide 200 μM
T1 construct: primary cultured human islet cells (control); endogenous in cells; host or cells: primary cultured human islet beta-cells
Text: (In the record shown, the maximum number of coincident open ion channel events is increased from 3 to 30). Under the same experimental conditions none of these agents had any action on ion channel events in the NES 2Y β-cells. Similar data were obtained in 4 (panel A) and 18 (panel B) other control experiments, and in a total of N=10 (panel A) and n=10 (panel B) NES 2Y β-cells experiments. Note that upward deflections represent outward current events, and that the broken lines indicate the zero current level which corresponds to closure of all K^+ channels. The same ionic gradients were used for each of the experimental protocols described, and all data are plotted to the same scales in each panel.
as §1, §2

[4] = test system: KATP channels; test: Patch-clamp recording of KATP channels in NES 2Y β-cells; format: cell-based, human; settings: intact cells (diazoxide 0.5 mM) or cell-free patches (cocktail)
[5] = test system: NES 2Y β-cells; test: Ca2+ microfluorimetry (fura-2) in NES 2Y β-cells; format: cell-based, human; settings: KCl 40 mM, tolbutamide 0.2 mM, glucose 20 mM
Description: as §3

[6] = test system: NISK 9 β-cells; test: Insulin release (radioimmunoassay) from NISK 9 β-cells; format: cell-based, human; settings: glucose 0.5-16 mM, KCl 40 mM, tolbutamide 0.2 mM
Description: NISK 9 cells (NES 2Y cells stably transfected with IUF1, Sur1 and Kir 6.2) were preincubated for 180 minutes in media containing 0.5 mM glucose. The media was then replaced with that containing the indicated concentrations of glucose, and the media samples assayed for insulin by radioimmunoassay after a further 60 minutes incubation. The data are presentative of two experiments, and show the mean +/− standard deviation of 6 separate determinations. The NISK9 cell line is shown to secrete insulin in response to changes in glucose in the physiological concentration range.
(§4) Insulin was measured by radioimmunoassay using an anti-human insulin antibody (Linco, UK) and ^125I-human insulin, as previously described.

[7] = test system: NES 2Y β-cells; test: Insulin release (radioimmunoassay) from NES 2Y β-cells; format: cell-based, human; settings: 40 mM KCl, 0.2 mM tolbutamide, glucose
Description: as §4

[8] = test system: untransfected cells; settings: 800 μg/ml G418 (data not shown)
[9] = test system: voltage-gated Ca2+ channels; format: cell-based, human
[10] = test system: voltage-gated Ca2+ channels; format: cell-based, human; remark: listed apart in the source
[11] = test system: voltage-gated Na+ channels; format: cell-based, human
[12] = test system: voltage-gated Na+ channels; format: cell-based, human; remark: listed apart in the source

T1 sequence (Q09428 whole entry): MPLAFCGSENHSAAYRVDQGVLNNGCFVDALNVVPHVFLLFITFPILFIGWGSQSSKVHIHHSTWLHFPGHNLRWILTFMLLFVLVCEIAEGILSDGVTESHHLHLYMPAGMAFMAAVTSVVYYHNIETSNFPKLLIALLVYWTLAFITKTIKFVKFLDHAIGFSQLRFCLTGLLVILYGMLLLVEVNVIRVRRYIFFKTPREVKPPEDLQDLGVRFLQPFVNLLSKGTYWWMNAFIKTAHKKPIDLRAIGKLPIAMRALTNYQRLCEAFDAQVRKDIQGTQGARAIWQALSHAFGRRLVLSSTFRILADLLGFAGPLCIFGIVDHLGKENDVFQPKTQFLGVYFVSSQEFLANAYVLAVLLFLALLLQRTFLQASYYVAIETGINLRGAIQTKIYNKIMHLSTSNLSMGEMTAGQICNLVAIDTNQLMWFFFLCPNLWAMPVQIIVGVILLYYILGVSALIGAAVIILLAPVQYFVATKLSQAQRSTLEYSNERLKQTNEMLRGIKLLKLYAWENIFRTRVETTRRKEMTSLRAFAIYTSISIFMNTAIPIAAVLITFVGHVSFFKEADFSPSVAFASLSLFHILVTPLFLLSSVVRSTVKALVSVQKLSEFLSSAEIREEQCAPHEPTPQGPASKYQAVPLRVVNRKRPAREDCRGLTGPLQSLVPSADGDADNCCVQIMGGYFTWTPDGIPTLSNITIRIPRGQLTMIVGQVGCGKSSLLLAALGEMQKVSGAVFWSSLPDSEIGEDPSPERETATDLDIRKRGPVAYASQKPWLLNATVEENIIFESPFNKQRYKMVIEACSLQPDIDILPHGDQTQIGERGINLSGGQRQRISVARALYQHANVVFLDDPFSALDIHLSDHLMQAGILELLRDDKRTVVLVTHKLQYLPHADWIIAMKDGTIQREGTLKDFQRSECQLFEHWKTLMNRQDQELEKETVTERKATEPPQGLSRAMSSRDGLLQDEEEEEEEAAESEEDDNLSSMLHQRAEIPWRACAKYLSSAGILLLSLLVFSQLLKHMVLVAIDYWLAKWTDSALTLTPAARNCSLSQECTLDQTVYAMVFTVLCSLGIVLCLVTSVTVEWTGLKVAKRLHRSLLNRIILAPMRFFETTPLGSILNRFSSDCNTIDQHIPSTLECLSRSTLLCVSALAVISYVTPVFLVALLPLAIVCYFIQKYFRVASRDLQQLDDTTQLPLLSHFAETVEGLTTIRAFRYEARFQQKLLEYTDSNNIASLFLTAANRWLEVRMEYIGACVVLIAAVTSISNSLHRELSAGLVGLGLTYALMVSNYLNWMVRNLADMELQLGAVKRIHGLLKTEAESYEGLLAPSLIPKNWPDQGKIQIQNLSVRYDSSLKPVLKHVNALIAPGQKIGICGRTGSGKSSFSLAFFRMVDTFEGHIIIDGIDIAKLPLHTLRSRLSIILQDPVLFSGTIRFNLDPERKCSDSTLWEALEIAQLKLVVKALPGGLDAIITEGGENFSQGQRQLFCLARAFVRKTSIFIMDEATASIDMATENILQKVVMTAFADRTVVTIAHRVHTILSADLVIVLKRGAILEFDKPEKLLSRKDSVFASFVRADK
T1 sequence (Q14654 whole entry): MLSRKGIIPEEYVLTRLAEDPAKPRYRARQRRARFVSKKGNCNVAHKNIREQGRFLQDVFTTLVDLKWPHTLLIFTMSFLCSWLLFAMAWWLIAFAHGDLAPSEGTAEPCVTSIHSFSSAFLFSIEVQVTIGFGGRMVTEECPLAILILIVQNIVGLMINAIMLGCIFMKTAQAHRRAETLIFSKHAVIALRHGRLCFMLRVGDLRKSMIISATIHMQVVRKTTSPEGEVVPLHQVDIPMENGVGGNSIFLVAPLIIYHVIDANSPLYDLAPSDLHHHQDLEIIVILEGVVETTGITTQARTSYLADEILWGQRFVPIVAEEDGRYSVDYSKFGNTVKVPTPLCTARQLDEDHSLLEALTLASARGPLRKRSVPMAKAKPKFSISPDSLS

SMILES: CC1=NS(=O)(=O)c2cc(Cl)ccc2N1 [diazoxide]
- effect on K+ channel in inside-out patch [1]: activation
- effect on recombinant KATP channels [1]: activated
- effect on the glucose-induced rise in [Ca2+]i ([2]; n=5): inhibited
- effect on spontaneously open KATP channels [3]: activated
- effect on KATP channel activity / ion channel events [4]: no response

SMILES: CCCCNC(=O)NS(=O)(=O)c1ccc(C)cc1 [tolbutamide]
- effect on cytosolic Ca2+ ([Ca2+]i) [5]: no elevation of [Ca^2+]i
- insulin secretion [6]: regulated insulin secretion
- effect on K+ channel in inside-out patch [1]: channel inhibition
- effect on recombinant KATP channels [1]: inhibited
- KATP channel activity remaining, % of the control value ([1]; isolated patches, 0.25 mM tolbutamide, n=3): 40.8±8.5%
- Δ[Ca2+]i, rise in the cytosolic concentration [2]: 158 ± 24 nM
- effect on cytosolic Ca2+ ([Ca2+]i) [2]: raise [Ca^2+]i
- insulin release [7]: fail to release insulin
- effect on spontaneously open KATP channels [3]: inhibited

SMILES: Nc1ncnc2c1ncn2[C@@H]1O[C@H](COP(=O)(O)OP(=O)(O)O)[C@@H](O)[C@H]1O [ADP]
- effect of nucleotides on recombinant KATP channels ([1]; NISK β-cells, inside-out patch): activated; also recorded: reversible recovery from closure

SMILES: CN[C@@H]1[C@@H](O)[C@@H](O[C@@H]2[C@@H](O)[C@H](O[C@H]3O[C@H]([C@@H](C)O)[C@@H](O)[C@H](O)[C@H]3N)[C@@H](N)C[C@H]2N)OC[C@]1(C)O [G418]
- time to toxic cell death [8]: ≤ 12 h

SMILES: COC(=O)C1=C(C)NC(C)=C([N+](=O)[O-])C1c1ccccc1C(F)(F)F (racemic) [(+/−) BAY K-8644]
- effect on Ttx-insensitive currents [9]: activation
- effect on Ttx-insensitive currents [10]: activation

SMILES: Nc1ncnc2c1ncn2[C@@H]1O[C@H](COP(=O)(O)OP(=O)(O)OP(=O)(O)O)[C@@H](O)[C@H]1O [ATP]
- effect on K+ channel in inside-out patch [1]: channel block
- IC50 ([1]; NISK β-cells, inside-out patch, ATP 0.005-1 mM, n=4, read-out: 50% inhibition of KATP channels): 5 to 10 µM
- effect of nucleotides on recombinant KATP channels ([1]; NISK β-cells, inside-out patch): inhibition of channels

SMILES: CCC1(C2=NCCN2)Cc2ccccc2O1 (stereo not drawn) [efaroxan]
- effect on K+ channel in inside-out patch [1]: channel inhibition
- KATP channel activity remaining, % of the immediate control value ([1]; isolated patches, 0.2 mM efaroxan, n=3): 8.5±5.6%
- Δ[Ca2+]i, rise in the cytosolic concentration [2]: 195 ± 40 nM

SMILES: NC1=N[C@H](O)[C@H]2[C@H]3O[C@]4(O)O[C@@H]([C@@H](O)[C@@]2(N1)[C@@H]4O)[C@]3(O)CO [tetrodotoxin]
- effect on voltage-gated currents [11]: inhibition
- effect on voltage-gated currents [12]: inhibition

SMILES: [Cl-].[K+] [KCl]
- effect on cytosolic Ca2+ ([Ca2+]i) [5]: no elevation of [Ca^2+]i
- insulin secretion [6]: regulated insulin secretion
- effect on cytosolic Ca2+ ([Ca2+]i) [2]: raise [Ca^2+]i
- insulin release [7]: fail to release insulin
